Measurements published in US7595334B2, “Broadspectrum 2-(substituted-amino)-benzoxazole sulfonamide HIV protease inhibitors” (Tibotec Pharmaceuticals Ltd., priority 2001, dated 2009).

Key:
mock-infected MT4 cells = experiment: in vitro
Protocol: (§1) HIV- or mock-infected MT4 cells were incubated for five days in the presence of various concentrations of the inhibitor. […] Cell viability is measured by measuring the concentration of MTT, a yellow, water soluble tetrazolium dye that is converted to a purple, water insoluble formazan in the mitochondria of living cells only. Upon solubilization of the resulting formazan crystals with isopropanol, the absorbance of the solution is monitored at 540 nm. The values correlate directly to the number of living cells remaining in the culture at the completion of the five day incubation. The inhibitory activity of the compound was monitored on the virus-infected cells and was expressed as EC50 and EC90. These values represent the amount of the compound required to protect 50% and 90%, respectively, of the cells from the cytopathogenic effect of the virus. The toxicity of the compound was measured on the mock-infected cells and was expressed as CC50, which represents the concentration of compound required to inhibit the growth of the cells by 50%. The selectivity index (SI) (ratio CC50/EC50) is an indication of the selectivity of the anti-HIV activity of the inhibitor. Wherever results are reported as e.g. pEC50 or pCC50 values, the result is expressed as the negative logarithm of the result expressed as EC50 or CC50 respectively.
(§2) As a measure of the broad spectrum activity of the present compounds, the fold resistance (FR), defined as FR=EC50(mutant strain)/EC50(HIV-1 strain LAI), was determined.

[1] = tested on: HIV strain A (clinically isolated, protease mutations); assay type: cell-based; settings: FR=EC50(mutant strain A)/EC50(HIV-1 strain LAI)
Protocol: as §1, §2

[2] = tested on: HIV strain B (clinically isolated, protease mutations); assay type: cell-based; settings: FR=EC50(mutant strain B)/EC50(HIV-1 strain LAI)
Protocol: as §1, §2

[3] = tested on: HIV strain C (clinically isolated, protease mutations); assay type: cell-based; settings: FR=EC50(mutant strain C)/EC50(HIV-1 strain LAI)
Protocol: as §1, §2

[4] = tested on: HIV strain D (clinically isolated, protease mutations); assay type: cell-based; settings: FR=EC50(mutant strain D)/EC50(HIV-1 strain LAI)
Protocol: as §1, §2

[5] = tested on: HIV strain E (clinically isolated, protease mutations); assay type: cell-based; settings: FR=EC50(mutant strain E)/EC50(HIV-1 strain LAI)
Protocol: as §1, §2

[6] = tested on: HIV strain F (clinically isolated, protease mutations); assay type: cell-based; settings: FR=EC50(mutant strain F)/EC50(HIV-1 strain LAI)
Protocol: as §1, §2

## CC(C)CN(C[C@@H](O)[C@H](Cc1ccccc1)NC(=O)OCc1cncs1)S(=O)(=O)c1ccc2nc(N(C)C(=O)c3ccccn3)oc2c1 [Compound 26]
mock-infected MT4 cells
  Tox (pCC50): 4.14
[1]
  A (FR) fold resistance: 9.3
[2]
  B (FR) fold resistance: 2.45
[3]
  C (FR) fold resistance: 3.4
[4]
  D (FR) fold resistance: 15
[5]
  E (FR) fold resistance: 11
[6]
  F (FR) fold resistance: 59

## CC(C)CN(C[C@@H](O)[C@H](Cc1ccccc1)NC(=O)O[C@H]1CO[C@H]2OCC[C@H]21)S(=O)(=O)c1ccc2nc(N(C)CCN3CCCC3)oc2c1 [Compound 8]
mock-infected MT4 cells
  Tox (pCC50): <4
[1]
  A (FR) fold resistance: 30
[2]
  B (FR) fold resistance: 5.8
[3]
  C (FR) fold resistance: 1.7
[4]
  D (FR) fold resistance: 5.8
[6]
  F (FR) fold resistance: 58

## CC(C)CN(C[C@@H](O)[C@H](Cc1ccccc1)NC(=O)OCc1cncs1)S(=O)(=O)c1ccc2nc(NC(=O)C3CCN(C)CC3)oc2c1 [Compound 15]
mock-infected MT4 cells
  Tox (pCC50): <4
[1]
  A (FR) fold resistance: 2.3
[2]
  B (FR) fold resistance: 0.81
[3]
  C (FR) fold resistance: 1.1
[4]
  D (FR) fold resistance: 1.7
[5]
  E (FR) fold resistance: 1.5
[6]
  F (FR) fold resistance: 7.8

## CC(C)CN(C[C@@H](O)[C@H](Cc1ccccc1)NC(=O)OCc1cncs1)S(=O)(=O)c1ccc2nc(N(C)C(=O)c3cccnc3)oc2c1 [Compound 32]
mock-infected MT4 cells
  Tox (pCC50): <4
[1]
  A (FR) fold resistance: 8.3
[2]
  B (FR) fold resistance: 1.7
[3]
  C (FR) fold resistance: 1.1
[4]
  D (FR) fold resistance: 8.1
[6]
  F (FR) fold resistance: 42

## CC(C)CN(C[C@@H](O)[C@H](Cc1ccccc1)NC(=O)OCc1cncs1)S(=O)(=O)c1ccc2nc(NC(=O)C3CCCN3C)oc2c1 (stereo partly drawn) [Compound 34]
mock-infected MT4 cells
  Tox (pCC50): 4.25
[1]
  A (FR) fold resistance: 7.2
[2]
  B (FR) fold resistance: 1.4
[3]
  C (FR) fold resistance: 1.7
[4]
  D (FR) fold resistance: 5.8
[5]
  E (FR) fold resistance: 2.3
[6]
  F (FR) fold resistance: 25

## CCOC(=O)Nc1nc2ccc(S(=O)(=O)N(CC(C)C)C[C@@H](O)[C@H](Cc3ccccc3)NC(=O)OCc3cncs3)cc2o1 [Compound 12]
mock-infected MT4 cells
  Tox (pCC50): <4
[1]
  A (FR) fold resistance: 8.5
[2]
  B (FR) fold resistance: 1.4
[3]
  C (FR) fold resistance: 2.5
[4]
  D (FR) fold resistance: 4.8
[5]
  E (FR) fold resistance: 2.5
[6]
  F (FR) fold resistance: 15

## CC(C)CN(C[C@@H](O)[C@H](Cc1ccccc1)NC(=O)OCc1cncs1)S(=O)(=O)c1ccc2nc(NC(=O)CN(C)CCN3CCCC3)oc2c1 [Compound 24]
mock-infected MT4 cells
  Tox (pCC50): <4
[1]
  A (FR) fold resistance: 1.9
[2]
  B (FR) fold resistance: 0.53
[3]
  C (FR) fold resistance: 1.3
[4]
  D (FR) fold resistance: 1.6
[5]
  E (FR) fold resistance: 1.4
[6]
  F (FR) fold resistance: 6.8

## CC(C)CN(C[C@@H](O)[C@H](Cc1ccccc1)NC(=O)OCc1cncs1)S(=O)(=O)c1ccc2nc(N(C)C(=O)C3CCC(=O)N3)oc2c1 (stereo partly drawn) [Compound 30]
mock-infected MT4 cells
  Tox (pCC50): <4

## CC(C)CN(C[C@@H](O)[C@H](Cc1ccccc1)NC(=O)OCc1cncs1)S(=O)(=O)c1ccc2nc(NC(=O)[C@H]3CCCN3C)oc2c1 [Compound 35]
mock-infected MT4 cells
  Tox (pCC50): 4.26
[1]
  A (FR) fold resistance: 13
[2]
  B (FR) fold resistance: 2.3
[3]
  C (FR) fold resistance: 1.1
[4]
  D (FR) fold resistance: 3.5
[6]
  F (FR) fold resistance: 48

## CC(C)CN(C[C@@H](O)[C@H](Cc1ccccc1)NC(=O)OCc1cncs1)S(=O)(=O)c1ccc2nc(N(C)C(=O)c3ccncc3)oc2c1 [Compound 31]
mock-infected MT4 cells
  Tox (pCC50): <4
[1]
  A (FR) fold resistance: 9.5
[2]
  B (FR) fold resistance: 1.3
[3]
  C (FR) fold resistance: 1.25
[4]
  D (FR) fold resistance: 7.6
[6]
  F (FR) fold resistance: 33

## CC(C)CN(C[C@@H](O)[C@H](Cc1ccccc1)NC(=O)OCc1cncs1)S(=O)(=O)c1ccc2nc(NC(=O)CN(C)C)oc2c1 [Compound 19]
mock-infected MT4 cells
  Tox (pCC50): <4
[1]
  A (FR) fold resistance: 3.0
[2]
  B (FR) fold resistance: 0.81
[3]
  C (FR) fold resistance: 0.91
[4]
  D (FR) fold resistance: 2.2
[6]
  F (FR) fold resistance: 17
